Test results as given in US10106778B2, “Selective targeting of cancer stem cells” (Whitehead Institute for Biomedical Research, priority 2012, dated 2018).

Key:
[1] = system: NAMEC-Tom-Ras and HMLE-GFP-Ras cells; experiment: Co-mixed NAMEC-Tom-Ras (CSC-enriched) and HMLE-GFP-Ras (CSC-depleted) cells, kinase inhibition, FACS; type: cell-based, human; conditions: for resistance of NAMEC-Tom-Ras cells relative to HMLE-GFP-Ras cells: at LC50, co-mixed cells; for which cell type is more sensitive / selected against: dose response, co-mixed cells
Experimental: (§1) Kinase inhibitors and other chemical compounds were obtained from various sources listed below. These were dissolved or diluted in DMSO. To set up the screen, 75,000 NAMEC-Tom and 15,000 HMLE-GFP cells were seeded into each well of a 6-well tissue culture plate. The following day, spent media was replaced with 3 ml of fresh media. Inhibitors were added to achieve the desired range of concentrations. For control treatment, DMSO was added. Fresh media containing inhibitors were replaced daily during the six day period. For analysis, cells were trypsinized with 1 ml 0.15% trypsin, diluted with 1 ml serum-containing media and fixed with 1 ml of 4% paraformaldehyde. FACS analysis was performed to analyze the proportion of surviving cells relative to DMSO-treated control for NAMEC-Tom or HMLE-GFP cells. To test the effects of these inhibitors on CSCs and non-CSCs, NAMEC-Ras-Tom and […] were used in similar co-mixed experiments.
as §1, with “experiments. To assess the fraction of cells undergoing apoptosis, cells were exposure to agents for three days without fresh media and then analyzed with Annexin V-APC (BD Biosciences).” for “experiments.”
Having determined that NAMEC-Ras cells were enriched for CSCs, we mixed NAMEC-Ras cells labeled with tdTomato (NAMEC-Tom-Ras) and HMLE-Ras cells labeled with GFP (HMLE-GFP-Ras) and re-tested the effects of kinase inhibition as described above. […] In addition, these NAMEC-Tom-Ras cells were more resistant to paclitaxel (11.3 fold) and staurosporine (32.8 fold) than the corresponding HMLE-GFP-Ras cells used as controls (FIG. 3C).

HMLE-GFP cells = experiment: Annexin V apoptosis in co-mixed culture, HMLE-GFP gate; type: cell-based, human; conditions: co-mixed cells treated for three days
Experimental: as §1, with “experiments. To assess the fraction of cells undergoing apoptosis, cells were exposure to agents for three days without fresh media and then analyzed with Annexin V-APC (BD Biosciences).” for “experiments.”
(§2) To assess how PKC inhibitors function in these cell populations, we tested whether they induced apoptosis. Thus, the mixed cell populations described above were treated with one of the inhibitors (Ro-31-8220) for three days and assessed with Annexin V, which marks apoptotic cells. 89% of NAMEC-Tom cells underwent apoptosis in comparison to 22.4% of the HMLE-GFP cells (FIG. 2E).

[2] = system: NAMEC-Tom and HMLE-GFP cells; experiment: Kinase inhibitor screen: co-mixed NAMEC-Tom and HMLE-GFP cells, six days of inhibitor, FACS; type: cell-based, human; conditions: six days of inhibitor treatment, FACS relative to DMSO
Experimental: as §1
as §1, with “experiments. To assess the fraction of cells undergoing apoptosis, cells were exposure to agents for three days without fresh media and then analyzed with Annexin V-APC (BD Biosciences).” for “experiments.”
We undertook to identify kinase inhibitors that selectively targeted mesenchymal-like cells including those with stem cell properties. To do so, we established a screen that measured the ability of candidate inhibitors to preferentially deplete NAMECs but not parental HMLE cells from cell cultures. Thus, we labeled NAMECs with the tdTomato red fluorescent protein (NAMEC-Tom) and the HMLE cells with the GFP green fluorescent protein (HMLE-GFP); we then attempted to reconstitute certain stem cell and non-stem cell interactions that might operate in vivo by mixing the two cell populations in 6-well adherent tissue culture plates. One day later, we challenged these cultures with a variety of kinase inhibitors (FIG. 2A).
The robustness of this screen, designed to identify mesenchymal cell-specific inhibitors, was enhanced by seeding NAMEC-Tom and HMLE-GFP cells in a 5:1 ratio. While NAMEC-Tom cells, like others that have passed through an EMT, proliferated marginally more slowly than their epithelial counterparts in culture, their initial advantage in seeding density was compensated over the course of the six day-long assays by the more rapid proliferation of the HMLE-GFP cells (FIG. 11). After six days of treatment, the relative proportions of NAMEC-Tom and HMLE-GFP cells were quantified with fluorescent-activated cell sorting (FACS) to determine the selective effects, if any, of these various inhibitors (FIG. 2A).

NAMECs = experiment: Cellular plasticity of NAMECs: differentiation by PGE2 blockade and inhibitor sensitivity; type: cell-based, human; conditions: for sensitivity of GW-treated (differentiated) NAMECs: after differentiation with GW627368; for sensitivity of NAMECs relative to parental HMLE cells: undifferentiated NAMECs
Description: NAMECs are phenotypically plastic and can transit between the epithelial and mesenchymal cell state. The cells relied on autocrinal PGE2 signaling for maintenance of the mesenchymal state.

NAMEC-Tom cells = experiment: Annexin V apoptosis in co-mixed culture, NAMEC-Tom gate; type: cell-based, human; conditions: co-mixed cells treated for three days
Experimental: as §1, with “experiments. To assess the fraction of cells undergoing apoptosis, cells were exposure to agents for three days without fresh media and then analyzed with Annexin V-APC (BD Biosciences).” for “experiments.”
as §2

NAMEC-Ras cells = experiment: NAMEC-Ras subcutaneous xenograft, treatment from day of implantation; type: in vivo
Experimental: All research involving animals complied with protocols approved by the MIT Committee on Animal Care. For subcutaneous injections, cells resuspended in 100111 PBS containing 50% Matrigel were injected into both flanks female NOD-SCID mice except for studies involving the in vivo administration of chemical inhibitors where only one flank was implanted. The tumor incidence and weight were measured between 4 and 12 weeks post-injection.
In order to assess the therapeutic benefits of PKCα and SPHK1/2 inhibitors, NOD-SCID mice were xenografted with 5×10^4 NAMEC-Ras cells and treated for 30 days with a daily intraperitoneal dose of either DMSO control, PKCα Inh (5 mg/kg/d), SPHK1/2 Inh (5 mg/kg/d) or PKCα+SPHK1/2 inhibitors (2.5 mg/kg/d of each).

p-FRA1^S265 = experiment: Western blot of FRA1 phosphorylation in NAMECs; type: cell-based, human; conditions: for effect on phosphorylation of FRA1: applied to NAMECs for 30 min; for total FRA1: within 30 min of treatment
Experimental: (§3) To obtain protein extracts, cells were scraped from culture dishes in chilled PBS, centrifuged at 450×g for 4 min at 4° C., washed again in PBS, and incubated for 20 min in ice cold lysis buffer containing freshly added protease inhibitors (0.5 mM phenylmethylsulfonyl fluoride, 10 μg/ml leupeptin, 2 μg/ml aprotonin). Lysates were cleared by centrifugation at 12,100×g, 4° C. for 10 min and the supernatant was snap frozen in liquid nitrogen. Protein concentrations were determined using Bradford Dye (Bio-Rad). 30 μg total protein was separated by SDS-PAGE on NuPAge gels (Invitrogen), and transferred to Hybond-P PVDF membrane (GE Healthcare). The membrane was probed with specific primary antibodies and antibody-protein complex detected by HRP-conjugated antibodies and ECL-Plus (Amersham Biosciences).
FRA1 is a member of the Fos family of transcription factors, which is also comprised of c-Fos, FosB and Fra2. Together with the Jun family of transcription factors composed of c-Jun, JunB and JunD, individual members of the Fos and Jun family associate with one another to form heterodimeric activator protein-1 (AP-1) complexes that bind and transcriptionally regulate target gene expression when phosphorylated (Eferl and Wagner, 2003).
We assessed whether the observed increased p-FRA1 activity in the mesenchymal cells could be further augmented by elevated ERK signaling during EMT. Accordingly, inhibition of ERK1/2 phosphorylation with a MEK inhibitor was able to decrease p-FRA1^S265 levels by 65% but not the levels of total FRA1 or p-c-Jun (FIG. 5G), confirming that ERK1/2 signaling promoted p-FRA1 activity.

[3] = system: p-PKCα^S497 and p-PKCα^T638; experiment: Western blot of PKCα phosphorylation in NAMECs; type: cell-based, human
Experimental: as §3
We subsequently sought to determine whether PKCα activation was directly dependent upon PDGFR-PLCγ. Exposure of NAMECs to a PLCγ inhibitor (U73122) reduced active p-PKCα^S497 and p-PKCα^T638 by 1.3 and 3.1-fold respectively within 30 min, and 6.3 and 4.2-fold respectively by 60 min (FIG. 13C); total PKCα level was unchanged (FIG. 13C). The inhibition of PDGFR in NAMECs, similarly, led to a loss of PKCα phosphorylation (p-PKCα^S497: 2.8 fold, p-PKCα^T638: 5.9 fold), as illustrated once again by the loss of active p-PKCα^S497 and p-PKCα^T638 within 30 min, while total PKCα remained constant (FIG. 13D).

[4] = 5×10^4 cells, daily intraperitoneal 30 days, 5 mg/kg/d (combination 2.5 mg/kg/d of each), after 15 weeks

In the case of `CN[C@@H]1C[C@H]2O[C@@](C)([C@@H]1OC)n1c3ccccc3c3c4c(c5c6ccccc6n2c5c31)C(=O)NC4` [staurosporine], the “resistance of NAMEC-Tom-Ras cells relative to HMLE-GFP-Ras cells” value [1] was 32.8 fold, the “apoptosis of HMLE-GFP cells (Annexin V)” value (HMLE-GFP cells) was 98% and the “preferential depletion of NAMEC-Tom or HMLE-GFP cells in co-mixed culture” value (“preferential depletion” for short) [2] was “preferentially depleted the epithelial HMLE-GFP cells”. For the same compound, the “sensitivity of GW-treated (differentiated) NAMECs” value (NAMECs) was “became sensitive”, the “sensitivity of NAMECs relative to parental HMLE cells” value (NAMECs) was “resistant” and the “apoptosis of NAMEC-Tom cells (Annexin V)” value (NAMEC-Tom cells) was 29.7%.
With `Oc1ccc(Nc2nc(-c3ccc(Cl)cc3)cs2)cc1` [SKI2] the “sensitivity of GW-treated (differentiated) NAMECs” value (NAMECs) was “lost their sensitivity” and the “sensitivity of NAMECs relative to parental HMLE cells” value (NAMECs) was “more sensitive”.
For `CC#CC(=O)Nc1cc2c(Nc3ccc(F)c(Cl)c3)ncnc2cn1` [EGFR Inh III], the “which cell type is more sensitive / selected against” value [1] was “HMLE-Ras-GFP were more sensitive”.
In the case of `Cn1cc(C2=C(c3cn(CCCSC(=N)N)c4ccccc34)C(=O)NC2=O)c2ccccc21` [Ro-31-8220], the “mice that formed tumors” value (NAMEC-Ras cells; [4]) was “four of eight”, the tumor weight (NAMEC-Ras cells; [4]) was about 0.16 g and the tolerability in mice (NAMEC-Ras cells; 30 days of treatment followed by eight weeks of observation) was “well-tolerated in mice and had no adverse effects”. The “effect on phosphorylation of FRA1” value (p-FRA1^S265) was “blocked the phosphorylation of FRA1”, the “total FRA1” value (p-FRA1^S265) was “unchanged” and the “apoptosis of HMLE-GFP cells (Annexin V)” value (HMLE-GFP cells) was 22.4%. The “preferential depletion” value [2] was “diminished NAMEC-Tom cells relative to HMLE-GFP cells”, the “sensitivity of GW-treated (differentiated) NAMECs” value (NAMECs) was “lost their sensitivity” and the “sensitivity of NAMECs relative to parental HMLE cells” value (NAMECs) was “more sensitive”. For the same compound, the “apoptosis of NAMEC-Tom cells (Annexin V)” value (NAMEC-Tom cells) was 89%.
`COc1cccc2c1C(=O)c1c(O)c3c(c(O)c1C2=O)C[C@@](O)(C(=O)CO)C[C@@H]3O[C@H]1C[C@H](N)[C@H](O)[C@H](C)O1` [doxorubicin] was tested, and the “preferential depletion” value [2] was “preferentially depleted the epithelial HMLE-GFP cells”.
`CC(=O)O[C@H]1C(=O)[C@@]2(C)[C@H]([C@H](OC(=O)c3ccccc3)[C@]3(O)C[C@H](OC(=O)[C@H](O)[C@@H](NC(=O)c4ccccc4)c4ccccc4)C(C)=C1C3(C)C)[C@]1(OC(C)=O)CO[C@@H]1C[C@@H]2O` [paclitaxel] was tested, and the “resistance of NAMEC-Tom-Ras cells relative to HMLE-GFP-Ras cells” value [1] was 11.3 fold, the “apoptosis of HMLE-GFP cells (Annexin V)” value (HMLE-GFP cells) was 89% and the “preferential depletion” value [2] was “preferentially depleted the epithelial HMLE-GFP cells”. For the same compound, the “sensitivity of GW-treated (differentiated) NAMECs” value (NAMECs) was “became sensitive”, the “sensitivity of NAMECs relative to parental HMLE cells” value (NAMECs) was “resistant” and the “apoptosis of NAMEC-Tom cells (Annexin V)” value (NAMEC-Tom cells) was 22.3%.
`CN(C)CCCn1cc(C2=C(c3c[nH]c4ccccc34)C(=O)NC2=O)c2ccccc21` [bisindolylmaleimide I] was tested, and the “effect on phosphorylation of FRA1” value (p-FRA1^S265) was “blocked the phosphorylation of FRA1”, the “total FRA1” value (p-FRA1^S265) was “unchanged” and the “preferential depletion” value [2] was “diminished NAMEC-Tom cells relative to HMLE-GFP cells”.
For `COc1ccc2c(c1)CC[C@@H]1[C@@H]2CC[C@]2(C)[C@@H](NCCCCCCN3C(=O)C=CC3=O)CC[C@@H]12` [U73122], the “effect on PKCα phosphorylation” value [3] was “The upregulation of PKCα phosphorylation by PDGFC was blocked”, the “total PKCα level” value [3] was “unchanged” and the “reduction of p-PKCα^S497” value ([3]; by 60 min) was 6.3 fold. The “reduction of p-PKCα^T638” value ([3]; by 60 min) was 4.2 fold, the “reduction of p-PKCα^S497” value ([3]; within 30 min) was 1.3 fold and the “reduction of p-PKCα^T638” value ([3]; within 30 min) was 3.1 fold.
With `CCCCCCCCc1cccc(NC(=O)[C@H](N)COP(=O)(O)O)c1` [VPC23019] the “which cell type is more sensitive / selected against” value [1] was “selected against NAMEC-Tom-Ras cells relative to HMLE-GFP-Ras cells in a dose-dependent manner”.
`O=C(Nc1cccc(Nc2cc(Nc3cccc(C(F)(F)F)c3)ncn2)c1)C1CC1` [EGFR Inh] was tested, and the “which cell type is more sensitive / selected against” value [1] was “HMLE-Ras-GFP were more sensitive”.
In the case of `CCOc1c2c(c(OCC)c3ccccc13)C(=O)N(c1ccc(CC(=O)NS(=O)(=O)c3ccccc3)cc1)C2` [GW627368], the “protein changes accompanying differentiation” value (NAMECs; PGE2 inhibition) was “downregulation of p-PKCα and SPHK1/2 proteins” and the “morphology of NAMECs” value (NAMECs; blocked PGE2 signaling) was “differentiated into an epithelial morphology within three weeks”.
With “PKC 20-28: PKCα inhibitor, EMD Biosciences 476480 (FARKGALRQ; pseudosubstrate peptide; UniProt P17252 20-28, looked up, fragment)” the “preferential depletion” value [2] was “diminished NAMEC-Tom cells relative to HMLE-GFP cells”.
